Drawing on patent US8394848B2, “Compounds that modulate intracellular calcium” (Calcimedica, Inc., priority 2008, dated 2013), this text covers IC50 for 37 molecules.

The test system of the experiment is JR251 or RBL cells. As to the kind of experiment: Store-operated calcium entry, either JR251 or RBL cells, or both. In kind it is cell-based. As for the experimental part:
The day prior to performing the assay, RBL-2H3 cells are plated in 50 μL of complete medium in a 384 well plate. Cells are grown at 37° C./6% CO2 overnight and grow to 50-60% confluence by the next day. On the assay day, 1.5 μM Fluo-4-AM dye (Invitrogen) in complete medium is added and incubated for 1 hour at RT. Cells are washed twice in Ca^2+-free HBSS buffer and 35 μL Ca^2+-free HBSS buffer is added to each well. 10 μL of a test compound prepared in a Ca^2+-free HBSS solution at 4.5× of the desired concentration is added to a well and incubated for 5 minutes at RT. 10 μL of thapsigargin prepared in a Ca^2+-free HBSS solution at 5.5× of the desired concentration (5.5 uM) is added to each well and incubated for an additional 25 minutes. The initial baseline fluorescence signal is measured with a FLIPR^384 (Molecular Devices) plate reader. 5 μL of 12× calcium in HBSS (12 mM) is added and changes in cellular fluorescence are measured with the FLIPR^384 plate reader. In each well, the change in the fluorescent signal as a function of time due to calcium entry into the cell is determined by calculating the difference between the fluorescent signal measured 7 seconds after calcium addition and the initial baseline fluorescence signal at time zero (t=0). This parameter is designated Upslope. The IC50 value is calculated as the concentration at which 50% of the Upslope is inhibited.

Regarding `Cc1ccc(-c2csc(NC(=O)c3cc4c(C)nn(C)c4s3)c2C(=O)O)cc1` [2-(1,3-dimethyl-1H-thieno[2,3-c]pyrazole-5-carboxamido)-4-p-tolylthiophene-3-carboxylic acid], the concentration for half-maximal inhibition (IC50) (in general, the concentration at which inhibition is half-maximal) is less than 10 µM. For `Cc1ccc(-c2csc(NC(=O)c3cc(C)n(C)n3)c2C(=O)O)cc1` [2-(1,5-dimethyl-1H-pyrazole-3-carboxamido)-4-p-tolylthiophene-3-carboxylic acid], the IC50 is less than 10 µM. As for `O=C(Nc1scc(-c2ccc(Cl)cc2)c1C(=O)O)c1nc2ccccc2[nH]1` [2-(1H-benzo[d]imidazole-2-carboxamido)-4-(4-chlorophenyl)thiophene-3-carboxylic acid], the figure is less than 10 µM. The value for `O=C(Nc1scc(-c2ccc(Cl)cc2)c1C(=O)O)c1ccc(-c2cccs2)s1` [2-(2,2′-bithiophene-5-carboxamido)-4-(4-chlorophenyl)thiophene-3-carboxylic acid] was less than 10 µM; that for `Cc1ccc(-c2csc(NC(=O)c3ccc(-c4cccs4)s3)c2C(=O)O)cc1` [2-(2,2′-bithiophene-5-carboxamido)-4-p-tolylthiophene-3-carboxylic acid] was less than 10 µM. Regarding `Cc1ccc(-c2csc(NC(=O)c3cc(Cl)sc3Cl)c2C(=O)O)cc1` [2-(2,5-dichlorothiophene-3-carboxamido)-4-p-tolylthiophene-3-carboxylic acid], the IC50 is less than 10 µM. `Cc1ccc(-c2csc(NC(=O)c3cc(C)oc3C)c2C(=O)O)cc1` [2-(2,5-dimethylfuran-3-carboxamido)-4-p-tolylthiophene-3-carboxylic acid]: the IC50 is less than 10 µM. As for `CC(C)C(C(=O)Nc1scc(-c2ccc(Cl)c(Cl)c2)c1C(=O)O)c1ccc(Cl)cc1` (stereo not shown) [2-(2-(4-chlorophenyl)-3-methylbutanamido)-4-(3,4-dichlorophenyl)thiophene-3-carboxylic acid], the figure is less than 10 µM.

As to `O=C(Cc1cc2ccccc2o1)Nc1scc(-c2ccc(Br)cc2)c1C(=O)O` [2-(2-(benzofuran-2-yl)acetamido)-4-(4-bromophenyl)thiophene-3-carboxylic acid], the IC50 is less than 10 µM.

As for `O=C(Cc1coc2ccccc12)Nc1scc(-c2ccc(Br)cc2)c1C(=O)O` [2-(2-(benzofuran-3-yl)acetamido)-4-(4-bromophenyl)thiophene-3-carboxylic acid], the IC50 is less than 10 µM. As for `O=C(CSc1ccccc1)Nc1scc(-c2ccc(C(F)(F)F)cc2)c1C(=O)O` [2-(2-(phenylthio)acetamido)-4-(4-(trifluoromethyl)phenyl)thiophene-3-carboxylic acid], the figure is less than 10 µM; as for `CC(C)(C)C(Cc1ccccc1)C(=O)Nc1scc(-c2ccc(Cl)cc2)c1C(=O)O` (stereo not shown) [2-(2-benzyl-3,3-dimethylbutanamido)-4-(4-chlorophenyl)thiophene-3-carboxylic acid], less than 10 µM; as for `O=C(O)c1c(-c2ccc(Cl)cc2)csc1NC(=O)C(Cl)Cc1ccccc1Cl` (stereo not shown) [2-(2-chloro-3-(2-chlorophenyl)propanamido)-4-(4-chlorophenyl)thiophene-3-carboxylic acid], less than 10 µM. `O=C(O)c1c(-c2ccc(Cl)cc2)csc1NC(=O)C(Cl)Cc1ccccc1` (stereo not shown) [2-(2-chloro-3-phenylpropanamido)-4-(4-chlorophenyl)thiophene-3-carboxylic acid]: the IC50 was less than 10 µM. The value for `Cc1ccc(-c2csc(NC(=O)c3cc(-c4ccccc4)oc3C)c2C(=O)O)cc1` [2-(2-methyl-5-phenylfuran-3-carboxamido)-4-p-tolylthiophene-3-carboxylic acid] was less than 10 µM.

Consider `O=C(O)c1c(-c2ccc(Cl)cc2)csc1NC(=O)C(F)Cc1cc(F)c(F)cc1Cl` (stereo not shown) [2-(3-(2-chloro-4,5-difluorophenyl)-2-fluoropropanamido)-4-(4-chlorophenyl)thiophene-3-carboxylic acid], for which the IC50 is less than 10 µM. For the molecule `O=C(O)c1c(-c2ccc(Cl)cc2)csc1NC(=O)C(F)Cc1ccc(F)cc1Cl` (stereo not shown) [2-(3-(2-chloro-4-fluorophenyl)-2-fluoropropanamido)-4-(4-chlorophenyl)thiophene-3-carboxylic acid], the IC50 was less than 10 µM. The value for `O=C(O)c1c(-c2ccc(Cl)cc2)csc1NC(=O)C(F)Cc1cc(F)ccc1Cl` (stereo not shown) [2-(3-(2-chloro-5-fluorophenyl)-2-fluoropropanamido)-4-(4-chlorophenyl)thiophene-3-carboxylic acid] was less than 10 µM. As for `O=C(O)c1c(-c2ccc(Cl)cc2)csc1NC(=O)C(F)Cc1c(F)cccc1Cl` (stereo not shown) [2-(3-(2-chloro-6-fluorophenyl)-2-fluoropropanamido)-4-(4-chlorophenyl)thiophene-3-carboxylic acid], the figure is less than 10 µM.

For the molecule `O=C(NCc1ccccc1)Nc1scc(-c2ccc(Br)cc2)c1C(=O)O` [2-(3-benzylureido)-4-(4-bromophenyl)thiophene-3-carboxylic acid], the IC50 is less than 10 µM. On to `O=C(NCc1ccccc1)Nc1scc(-c2ccc(Cl)cc2)c1C(=O)O` [2-(3-benzylureido)-4-(4-chlorophenyl)thiophene-3-carboxylic acid], for which the IC50 was less than 10 µM.

In the case of `CC(C)S(=O)(=O)c1csc(C(=O)Nc2scc(-c3ccc(Cl)cc3)c2C(=O)O)c1Cl` [2-(3-chloro-4-(isopropylsulfonyl)thiophene-2-carboxamido)-4-(4-chlorophenyl)thiophene-3-carboxylic acid], the IC50 was less than 10 µM.

With `Cc1ccc(-c2csc(NC(=O)c3scc(S(=O)(=O)C(C)C)c3Cl)c2C(=O)O)cc1` [2-(3-chloro-4-(isopropylsulfonyl)thiophene-2-carboxamido)-4-p-tolylthiophene-3-carboxylic acid], the IC50 was less than 10 µM. As for `CS(=O)(=O)c1csc(C(=O)Nc2scc(-c3ccc(Cl)cc3)c2C(=O)O)c1Cl` [2-(3-chloro-4-(methylsulfonyl)thiophene-2-carboxamido)-4-(4-chlorophenyl)thiophene-3-carboxylic acid], the IC50 is less than 10 µM. As for `Cc1ccc(-c2csc(NC(=O)c3scc(S(C)(=O)=O)c3Cl)c2C(=O)O)cc1` [2-(3-chloro-4-(methylsulfonyl)thiophene-2-carboxamido)-4-p-tolylthiophene-3-carboxylic acid], the figure is less than 10 µM; as for `Cc1ccsc1C(=O)Nc1scc(-c2ccc(C(F)(F)F)cc2)c1C(=O)O` [2-(3-methylthiophene-2-carboxamido)-4-(4-(trifluoromethyl)phenyl)thiophene-3-carboxylic acid], less than 10 µM. As for `Cc1ccc(-c2csc(NC(=O)c3sccc3C)c2C(=O)O)cc1` [2-(3-methylthiophene-2-carboxamido)-4-p-tolylthiophene-3-carboxylic acid], the figure is less than 10 µM. `Cc1ccc(-c2csc(NC(=O)c3cc4c(Cl)cc(Cl)cc4[nH]3)c2C(=O)O)cc1` [2-(4,6-dichloro-1H-indole-2-carboxamido)-4-p-tolylthiophene-3-carboxylic acid]: the IC50 was less than 10 µM. As for `Cc1ccc(-c2csc(NC(=O)c3scc(S(=O)(=O)c4ccc(Cl)cc4)c3C)c2C(=O)O)cc1` [2-(4-(4-chlorophenylsulfonyl)-3-methylthiophene-2-carboxamido)-4-p-tolylthiophene-3-carboxylic acid], the figure is less than 10 µM; as for `O=C(Nc1scc(-c2cc3cccc(O)c3o2)c1C(=O)O)c1cc2c(F)cccc2o1` [2-(4-fluorobenzofuran-2-carboxamido)-4-(7-hydroxybenzofuran-2-yl)thiophene-3-carboxylic acid], less than 10 µM. In the case of `Cc1ccc(-c2csc(NC(=O)c3nc4cc(Br)ccc4o3)c2C(=O)O)c(F)c1F` [2-(5-bromobenzo[d]oxazole-2-carboxamido)-4-(2,3-difluoro-4-methylphenyl)thiophene-3-carboxylic acid], the IC50 was less than 10 µM. As to `O=C(Nc1scc(-c2ccc(Cl)cc2)c1C(=O)O)c1nc2cc(Br)ccc2o1` [2-(5-bromobenzo[d]oxazole-2-carboxamido)-4-(4-chlorophenyl)thiophene-3-carboxylic acid], the IC50 was less than 10 µM. Regarding `O=C(O)c1c(-c2ccc(Cl)cc2)csc1NC(=O)C1Cc2cc(Cl)ccc2O1` (stereo not shown) [2-(5-chloro-2,3-dihydrobenzofuran-2-carboxamido)-4-(4-chlorophenyl)thiophene-3-carboxylic acid], the IC50 was less than 10 µM. With `COc1c(C(=O)Nc2scc(-c3ccc(Cl)cc3)c2C(=O)O)csc1Cl` [2-(5-chloro-4-methoxythiophene-3-carboxamido)-4-(4-chlorophenyl)thiophene-3-carboxylic acid], the IC50 was less than 10 µM. The value for `Cc1ccc(-c2csc(NC(=O)c3nc4cc(Cl)ccc4o3)c2C(=O)O)c(F)c1F` [2-(5-chlorobenzo[d]oxazole-2-carboxamido)-4-(2,3-difluoro-4-methylphenyl)thiophene-3-carboxylic acid] was less than 10 µM; that for `O=C(Nc1scc(-c2ccc(Cl)cc2)c1C(=O)O)c1nc2cc(Cl)ccc2o1` [2-(5-chlorobenzo[d]oxazole-2-carboxamido)-4-(4-chlorophenyl)thiophene-3-carboxylic acid] was less than 10 µM. The value for `Cc1ccc(-c2csc(NC(=O)c3ccc(-c4ccccc4)s3)c2C(=O)O)cc1` [2-(5-phenylthiophene-2-carboxamido)-4-p-tolylthiophene-3-carboxylic acid] was less than 10 µM.
